# “Also recorded” adds a separate entry of the source.
# How the values were obtained:
# [1] = Antianxiety and anticonvulsive effects (preliminary data)
# [2] = system: release of reactive oxygen intermediates by monocytic RAW 264.7 cells; assay: Zymosan-induced release of reactive oxygen intermediates, chemiluminescence; type: cell-based
# Excerpt: Table of results are attached in following Table C.
# (§1) The experimental methods used have been described in Gallily et al. (Eur. J. Pharmacol. 406, R5-R7, 2000), Avron and Gallily (J. Leukocyte Biol. 57, 264-268, 1995) and Gallily et al. (J. Pharmacol. Exp. Ther. 283, 918-924, 1997).
# [3] = system: formalin-induced paw licking; assay: Formalin test for peripheral pain; type: in vivo, mouse; conditions: mice; 20 mg/kg; 5 min recorded 30 min after formalin (3.2%)
# Procedure: Thus mice injected with formalin (3.2% dissolved in saline) licked their paws 8±2 times over 5 min, recorded 30 min after the formalin administration.
# (§2) Female Sabra mice (2 months old, Harlan-Sprague Dawley, Jerusalem) were used for a series of tests and for the assays for inflammation and peripheral pain. Groups of 5 mice were used in each experiment. Compounds 2a, 2b, 3a and 3b were dissolved in vehicle (ethanol:emulphor:saline=1:1:18) and injected intraperitoneally (i.p.) in volumes of 0.1 ml/10 g in mice as previously described (Hanus et al., 1999).
# Pain mediated by the peripheral nervous system, was tested in the ‘formalin test’ for cutaneous (peripheral) pain (Tjolson et al., 1992; Calignano et al., 1998; Jaggar et al, 1998). The compound tested (or vehicle) was injected i.p. Formalin (3.2% dissolved in saline) was injected s.c. in the plantar surface of the hind paw of a mouse (in 20 μl volumes) 90 min after the drug. Immediately after formalin administration nociception was assessed (every 5 min for 1 hr) by the number of times the animal licks for formalin-injected paw.
# [4] = system: arachidonic acid-induced swelling of the ear; assay: Arachidonic acid-induced ear inflammation in the mouse; type: in vivo
# Procedure: Mice (female Sabra) were treated with […] A′ A (in 5 μl EtOH) dispersed on the inner surface of one of the ears. The other ear was treated with 5 μl of EtOH. Ear swelling was assessed by measuring ear thickness with a dial thickness gauge (Mitutoyo, Japan) just before treatment and 30 min after A; A application. The drugs (40 mg/kg for the cannabinoids and 20 mg/kg for indomethacin) were injected i.p. 60 min before the A′ A treatment. *** indicates p<0.001.
# The effect of various doses of CBD-7-oic acid (3a) (Example 28), and of CBD-DMH-7-oic acid (3b) (Example 28) and of indomethacin (20 mg/kg) after arachidonic acid-induced swelling of the ear are shown in FIG. 2. The effects were measured over 75 min after the administration of arachidonic acid.
# as §2
# Ear inflammation was measured by assessing ear tissue swelling after topical application of arachidonic acid. […] The opposite ear served as control (5 μl ethanol). Ear thickness was determined (in 0.01 mm units) every 15 min for 90 min starting immediately after arachidonic acid application using a dial thickness gauge (Mitutoyo, Japan).
# [5] = system: TNFα production by RAW 264.7 mouse monocytic cell line; assay: TNFα production by RAW 264.7 mouse monocytic cell line; type: cell-based; set-up: TNFα Titer S50: unit not given beside the values
# Procedure: (§3) The inhibition is dose dependent (10 μg-0.001 μg/ml). Tables of results are attached in following Tables A and B.
# as §1
# [6] = system: human HL-60 promyelecytic leukemia cells; assay: Apoptosis of HL-60 cells, Hoechst 33258 stain; type: cell-based; conditions: for % apoptosis / programmed cell death (apoptosis): HL-60; for % apoptosis: 24 h; for programmed cell death (apoptosis): dose dependent 0.1 μg/ml to 8 μg/ml
# Excerpt: The method used, namely determination by the fluorescent Hoechst 33258 stain, is described by T. R. Chen (Cell Res. 104, 255-262, 1977). A Table of results is appended in following Table D.
# serum TNFα = assay: Serum TNFα in mice after ip injection of LPS; type: in vivo
# Procedure: This anti TNFα effect is also seen in vivo. High levels of TNFα appear in serum of mice after ip injection of 5 mg/kg/mouse lipopolysaccharide (LPS). […] At the lower dose of 0.5 mg/kg 80% suppression of TNFα level was observed. […] Thus 7-hydroxy-CBD (2a) in doses of 10 μg/kg i.p. suppressed serum TNFα in mice (30%).
# [7] = system: TNFα production by Thioglycollate-elicited macrophages (TGMMΦ); assay: TNFα production by thioglycollate-elicited macrophages; type: cell-based, murine; conditions: TGMΦ; for % inhibition of TNFα titer: 24 hrs
# Procedure: as §3, §1
# [8] = system: uptake of endocannabinoids into neuronal cells; assay: Uptake of endocannabinoids into neuronal cells; type: cell-based; conditions: preliminary data
# CB1 = target: T1, CB1 (Rattus norvegicus, UniProt P20272); conditions: previously described probe; cited from earlier work
# T1 construct: synaptosomal membranes prepared from rat brains; from tissue; host or cells: rat brain synaptosomal membranes
# CB2 = CB2 (Homo sapiens, UniProt P34972); conditions: cited from earlier work
# [9] = system: phenylbenzoquinone writhing; conditions: Formukong et al. 1988; cited from earlier work
# [10] = system: tetradecanoylphorbolacetable (TPA) induced erythema of mouse ear; conditions: application of a 100 μg/ml solution; Formukong et al. 1988; cited from earlier work
# [11] = cannabinoid 5 mg/kg, compared with indomethacin 20 mg/kg
# [12] = cannabinoid 40 mg/kg i.p., compared with indomethacin 20 mg/kg i.p.
# [13] = cannabinoid 80 mg/kg, compared with indomethacin 20 mg/kg
# Sequence of CB2 (P34972 whole entry, species assumed): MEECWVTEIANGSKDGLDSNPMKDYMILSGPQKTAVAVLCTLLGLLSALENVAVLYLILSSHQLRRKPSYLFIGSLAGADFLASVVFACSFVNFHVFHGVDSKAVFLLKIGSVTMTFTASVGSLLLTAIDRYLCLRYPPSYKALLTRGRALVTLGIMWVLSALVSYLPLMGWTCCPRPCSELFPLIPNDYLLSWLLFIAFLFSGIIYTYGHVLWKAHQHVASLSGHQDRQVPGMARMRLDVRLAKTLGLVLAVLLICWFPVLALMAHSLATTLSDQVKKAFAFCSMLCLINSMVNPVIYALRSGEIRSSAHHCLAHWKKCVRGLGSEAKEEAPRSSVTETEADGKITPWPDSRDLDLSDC
# T1 sequence (P20272 whole entry): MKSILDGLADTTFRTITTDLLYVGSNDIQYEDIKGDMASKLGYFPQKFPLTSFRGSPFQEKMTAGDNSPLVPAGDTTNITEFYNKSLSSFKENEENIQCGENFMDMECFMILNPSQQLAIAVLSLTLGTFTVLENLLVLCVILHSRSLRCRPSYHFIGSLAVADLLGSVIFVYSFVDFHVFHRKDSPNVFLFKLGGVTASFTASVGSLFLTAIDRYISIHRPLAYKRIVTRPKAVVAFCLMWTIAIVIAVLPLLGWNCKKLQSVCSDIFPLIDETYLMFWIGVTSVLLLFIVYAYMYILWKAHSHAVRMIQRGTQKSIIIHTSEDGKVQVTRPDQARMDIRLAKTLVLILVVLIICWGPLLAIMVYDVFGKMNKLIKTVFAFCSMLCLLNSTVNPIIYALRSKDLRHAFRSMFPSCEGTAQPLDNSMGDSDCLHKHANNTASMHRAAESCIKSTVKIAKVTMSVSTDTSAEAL
smiles,measurement,setting,value
"C=C(C)[C@@H]1CCC(C(=O)O)=C[C@H]1c1c(O)cc(CCCCC)cc1O [Compound 3a, 7-Nor-carboxy CBD]",antianxiety and anticonvulsive effects,[1],have antianxiety and anticonvulsive effects
same,Cherniluminescense peak,[2]; Zymosan + 4 μg/ml,4139
same,Inhibition % of ROI release,[2]; Zymosan + 4 μg/ml,31%
same,Cherniluminescense peak,[2]; Zymosan + 10 μg/ml,1041
same,Inhibition % of ROI release,[2]; Zymosan + 10 μg/ml,83%
same,"paw licking, late phase of formalin-induced pain behavior",[3],fully blocked the licking
same,antiinflammatory effect on arachidonic acid-induced ear swelling,[4]; [11],less active than 3b
same,antiinflammatory effect on arachidonic acid-induced ear swelling,[4]; [12],essentially equivalent to that of indomethacin
same,antiinflammatory effect on arachidonic acid-induced ear swelling,[4]; [13],less effective than indomethacin
"C=C(C)[C@@H]1CCC(C(=O)O)=C[C@H]1c1c(O)cc(C(C)(C)CCCCCC)cc1O [Compound 3b, 7-Nor-carboxy CBD DMH]",% inhibition of TNFα titer,[5]; LPS + 0.01 μg/ml,11%
same,TNFα Titer S50,[5]; LPS + 0.01 μg/ml,5818
same,% inhibition of TNFα titer,[5]; LPS + 0.1 μg/ml,45%
same,TNFα Titer S50,[5]; LPS + 0.1 μg/ml,357.6
same,% inhibition of TNFα titer,[5]; LPS + 1 μg/ml,63%
same,TNFα Titer S50,[5]; LPS + 1 μg/ml,2384
same,% inhibition of TNFα titer,[5]; LPS + 4 μg/ml,65%
same,TNFα Titer S50,[5]; LPS + 4 μg/ml,2300
same,% inhibition of TNFα titer,[5]; LPS + 10 μg/ml,91%
same,TNFα Titer S50,[5]; LPS + 10 μg/ml,615
same,% apoptosis,"[6]; 5 μg/ml, no irradiation",15%
same,% apoptosis,"[6]; 5 μg/ml, γ-irradiation 800 rad",25%
same,% apoptosis,"[6]; 10 μg/ml, no irradiation",27%
same,% apoptosis,"[6]; 10 μg/ml, γ-irradiation 800 rad",58%
same,programmed cell death (apoptosis),[6],high rate of programmed cell death
same,antianxiety and anticonvulsive effects,[1],have antianxiety and anticonvulsive effects
same,suppression of TNFα level in serum,serum TNFα; 0.5 mg/kg simultaneously with LPS,80%
same,suppression of serum TNFα level,serum TNFα; 0.5 and 5 mg/kg simultaneously with LPS 5 mg/kg ip,suppressed serum TNFα level
same,TNFα Titer (S50) After 24 hrs.,[7]; LPS + 0.01 μg/ml,535
same,% inhibition of TNFα titer,[7]; LPS + 0.01 μg/ml,36%
same,TNFα Titer (S50) After 24 hrs.,[7]; LPS + 1 μg/ml,501
same,% inhibition of TNFα titer,[7]; LPS + 1 μg/ml,40%
same,TNFα Titer (S50) After 24 hrs.,[7]; LPS + 5 μg/ml,406
same,% inhibition of TNFα titer,[7]; LPS + 5 μg/ml,51%
same,TNFα Titer (S50) After 24 hrs.,[7]; LPS + 10 μg/ml,159
same,% inhibition of TNFα titer,[7]; LPS + 10 μg/ml,81%
same,Cherniluminescense peak,[2]; Zymosan + 4 μg/ml,1524
same,Inhibition % of ROI release,[2]; Zymosan + 4 μg/ml,83%
same,Cherniluminescense peak,[2]; Zymosan + 10 μg/ml,432
same,Inhibition % of ROI release,[2]; Zymosan + 10 μg/ml,95%
same,"paw licking, late phase of formalin-induced pain behavior",[3],fully blocked the licking
same,antiinflammatory effect on arachidonic acid-induced ear swelling,[4]; [11],fully suppressed the inflammation; also recorded: as potent as indomethacin
same,antiinflammatory effect on arachidonic acid-induced ear swelling,[4]; [12],essentially equivalent to that of indomethacin
same,antiinflammatory effect on arachidonic acid-induced ear swelling,[4]; [13],less effective than indomethacin
"C=C(C)[C@@H]1CCC(CO)=C[C@H]1c1c(O)cc(CCCCC)cc1O [Compound 2a, 7-Hydroxy CBD]",antianxiety and anticonvulsive effects,[1],have antianxiety and anticonvulsive effects
same,uptake of endocannabinoids into neuronal cells,[8],prevent the uptake of endocannabinoids into neuronal cells
same,suppression of serum TNFα,serum TNFα; 10 μg/kg i.p.,30%
same,"paw licking, late phase of formalin-induced pain behavior",[3],fully blocked the licking
same,antiinflammatory effect on arachidonic acid-induced ear swelling,[4]; [12],less active than the potent antiinflammatory drug indomethacin
"C=C(C)[C@@H]1CCC(C)=C[C@H]1c1c(O)cc(C(C)(C)CCCCCC)cc1O [Compound 1b, CBD-DMH, reference compound]",uptake of endocannabinoids into neuronal cells,[8],prevent the uptake of endocannabinoids into neuronal cells
"C=C(C)[C@@H]1CCC(CO)=C[C@H]1c1c(O)cc(C(C)(C)CCCCCC)cc1O [Compound 2b, 7-Hydroxy CBD-DMH]",antianxiety and anticonvulsive effects,[1],have antianxiety and anticonvulsive effects
same,uptake of endocannabinoids into neuronal cells,[8],prevent the uptake of endocannabinoids into neuronal cells
same,"paw licking, late phase of formalin-induced pain behavior",[3],fully blocked the licking
same,antiinflammatory effect on arachidonic acid-induced ear swelling,[4]; [12],less active than the potent antiinflammatory drug indomethacin
CCCCCCC(C)(C)c1cc(O)c2c(c1)OC(C)(C)[C@@H]1CC[C@@H](CO)C[C@@H]21 [[^3H]HU-243],Ki,CB1,0.045 ± 0.007 nM
"C=C(C)[C@@H]1CCC(C)=C[C@H]1c1c(O)cc(CCCCC)cc1O [CBD, Cannabidiol]",% apoptosis,"[6]; 1 μg/ml, no irradiation",19%
same,% apoptosis,"[6]; 1 μg/ml, γ-irradiation 800 rad",28%
same,% apoptosis,"[6]; 4 μg/ml, no irradiation",33%
same,% apoptosis,"[6]; 4 μg/ml, γ-irradiation 800 rad",45%
same,% apoptosis,"[6]; 8 μg/ml, no irradiation",48%
same,% apoptosis,"[6]; 8 μg/ml, γ-irradiation 800 rad",85%
same,programmed cell death (apoptosis),[6],high rate of programmed cell death
same,"apoptosis, synergism with γ ray irradiation",[6]; HL-60 irradiated by γ ray (800 rad) and treated with cannabinoid,up to 85%
same,uptake of endocannabinoids into neuronal cells,[8],prevent the uptake of endocannabinoids into neuronal cells
same,binding to cannabinoid receptor CB2,CB2,does not bind
same,analgesic potency compared with aspirin,[9],much more potent than aspirin
same,inhibition of the inflammation response,[10],92%
